Source: patent publication US10239871B2, “Compounds and methods for regulating integrins” (ADHAERE PHARMACEUTICALS, INC., priority 2012, dated 2019)
Entries after “also recorded” stand apart in the source; their conditions may differ.

Tests used:
CD11b/CD18 [1] = target: CD11b/CD18 (Homo sapiens, UniProt P11215); assay: Immunofluorescence microscopy of CD11b/CD18 clustering on K562 WT cells; format: cell-based; parameters: K562 cells stably transfected with plasmid encoding wild-type integrin CD11b/CD18; expressed in transfected cells
Procedure: To visualize changes upon ligand binding, fibrinogen (50 μg/mL) was also added to the cell suspension media in a second set of incubations. The cells were fixed in suspension and incubated with mAb 184, which is specific for CD11b/CD18, followed by Alexa Fluor 488-conjugated goat antibody against mouse Ig (Sigma). Fluorescence images were recorded with a Leica DMI16000 deconvolution microscope using an HCX APO 40×/0.75 DRY objective with a DCF360FX camera and with Leica LAS-AF software. A 3-dimensional representation of CD11b/CD18 fluorescence intensity and the analysis of the number of CD11b/CD18 clusters per cell was performed using ImageJ software as described. Clustering determination was carried out by counting individual fluorescent peaks that were projected from the basal to the apical side of the cell and were at least 50% above the base line levels. The images presented are representative of at least 20 cells analyzed for each condition from at least three independent experiments.
Therefore, to investigate, a combination of confocal microscopy (to study clustering) and western blotting assays (to study intracellular signaling) using K562 WT cells were used. First, CD11b/CD18 cell-surface distribution and macro clustering was studied under various conditions using confocal microscopy. K562 WT cells in suspension were incubated with various agonists, fixed with paraformaldehyde and the surface expressed CD11b/CD18 was fluorescently stained with anti-CD11b/CD18 mAb 1B4. […] The fluorescence images shown are representative of three independent experiments. […] Also shown below each image is a 3D representation of CD11b fluorescence intensity for selected cells, analyzed in ImageJ In FIG. 5B, data shown are mean±SEM from >40 cells per condition and from >3 independent experiments for each condition. ***p<0.0001, ns=not significant.

Syk = assay: Western blot analysis of Syk phosphorylation in leukocytes; format: cell-based; details: leukocytes incubated 0-60 minutes
Text: TLR4-mediated signaling requires participation of the adaptor protein MyD88 (43) and MyD88−/− mice are protected from kidney damage following IRI. TLR4 activation leads to the binding and stabilization of adaptor protein MyD88, which recruits downstream kinases to initiate Nf-kB-mediated pro-inflammatory signaling. Subsequently, TLR4 signaling induces a negative feedback loop by endogenous activation of CD11b/CD18, which activates Syk to phosphorylate MyD88, tagging it for ubiquitin-mediated destruction. […] A pilot experiment was carried out to validate this hypothesis by determining the levels of MyD88 in human monocytic THP-1 cells. […] This supports the statements that leukadherins mediated priming of integrins for activation negatively regulates intracellular signaling, including the inflammatory NF-kB signaling.

[2] = Solubility of LA1 in oral vehicle formulations and simulated biological fluids (LC-MS); format: physicochemical
Procedure: Pilot oral vehicle evaluation. […] Subsequently, re-dispersability of LA1 was tested using two simulated biological fluids—simulated gastric fluid (SGF) and Fasted State Simulated […] Fluid (FaSSIF).

[3] = tested on: allograft transplantation; assay: Allograft transplantation model (kidney); format: in vivo; details: co-treatment with cyclosporine
CD11b/CD18 [4] = target: T1, CD11b/CD18 (Mus musculus, UniProt P05555); assay: Cell adhesion assay, RAW 264.7 cells on immobilized fibrinogen; format: cell-based, murine; details: vs basal 1 mM Ca2+ and Mg2+
T1 construct: that have constitutive CD11b/CD18 surface expression were used; host or cells: RAW 264.7 murine macrophage cell line
T1 sequence (P05555 17-1153): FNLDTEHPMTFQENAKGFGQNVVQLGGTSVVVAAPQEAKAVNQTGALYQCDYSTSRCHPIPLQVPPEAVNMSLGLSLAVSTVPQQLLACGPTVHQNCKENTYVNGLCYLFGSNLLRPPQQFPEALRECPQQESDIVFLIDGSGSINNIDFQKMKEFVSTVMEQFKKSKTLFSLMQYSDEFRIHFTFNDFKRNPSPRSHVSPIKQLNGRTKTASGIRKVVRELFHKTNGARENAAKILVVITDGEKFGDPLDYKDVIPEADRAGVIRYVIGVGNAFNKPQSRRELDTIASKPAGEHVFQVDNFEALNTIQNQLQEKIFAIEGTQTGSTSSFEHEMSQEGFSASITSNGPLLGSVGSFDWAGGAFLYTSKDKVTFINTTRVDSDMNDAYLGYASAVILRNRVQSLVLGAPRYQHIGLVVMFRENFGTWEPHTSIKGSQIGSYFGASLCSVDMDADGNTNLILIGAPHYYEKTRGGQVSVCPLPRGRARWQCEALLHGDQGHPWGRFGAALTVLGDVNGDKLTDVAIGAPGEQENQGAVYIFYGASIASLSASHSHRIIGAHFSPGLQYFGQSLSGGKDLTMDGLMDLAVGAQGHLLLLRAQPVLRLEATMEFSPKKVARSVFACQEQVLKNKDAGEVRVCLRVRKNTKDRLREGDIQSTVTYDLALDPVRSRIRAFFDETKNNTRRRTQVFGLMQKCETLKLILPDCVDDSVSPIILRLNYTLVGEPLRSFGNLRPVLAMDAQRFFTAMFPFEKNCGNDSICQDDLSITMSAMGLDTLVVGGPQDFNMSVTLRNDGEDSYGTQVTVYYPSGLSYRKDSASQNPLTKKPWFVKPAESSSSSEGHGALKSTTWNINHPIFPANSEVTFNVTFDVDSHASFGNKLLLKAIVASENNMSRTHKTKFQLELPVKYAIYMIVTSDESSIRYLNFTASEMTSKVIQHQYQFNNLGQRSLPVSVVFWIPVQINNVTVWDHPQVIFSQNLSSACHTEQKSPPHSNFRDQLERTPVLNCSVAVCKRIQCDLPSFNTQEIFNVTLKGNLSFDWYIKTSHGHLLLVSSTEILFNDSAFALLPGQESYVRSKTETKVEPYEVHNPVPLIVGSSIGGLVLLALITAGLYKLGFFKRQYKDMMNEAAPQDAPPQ
T1 sequence (P11835 24-771 partner): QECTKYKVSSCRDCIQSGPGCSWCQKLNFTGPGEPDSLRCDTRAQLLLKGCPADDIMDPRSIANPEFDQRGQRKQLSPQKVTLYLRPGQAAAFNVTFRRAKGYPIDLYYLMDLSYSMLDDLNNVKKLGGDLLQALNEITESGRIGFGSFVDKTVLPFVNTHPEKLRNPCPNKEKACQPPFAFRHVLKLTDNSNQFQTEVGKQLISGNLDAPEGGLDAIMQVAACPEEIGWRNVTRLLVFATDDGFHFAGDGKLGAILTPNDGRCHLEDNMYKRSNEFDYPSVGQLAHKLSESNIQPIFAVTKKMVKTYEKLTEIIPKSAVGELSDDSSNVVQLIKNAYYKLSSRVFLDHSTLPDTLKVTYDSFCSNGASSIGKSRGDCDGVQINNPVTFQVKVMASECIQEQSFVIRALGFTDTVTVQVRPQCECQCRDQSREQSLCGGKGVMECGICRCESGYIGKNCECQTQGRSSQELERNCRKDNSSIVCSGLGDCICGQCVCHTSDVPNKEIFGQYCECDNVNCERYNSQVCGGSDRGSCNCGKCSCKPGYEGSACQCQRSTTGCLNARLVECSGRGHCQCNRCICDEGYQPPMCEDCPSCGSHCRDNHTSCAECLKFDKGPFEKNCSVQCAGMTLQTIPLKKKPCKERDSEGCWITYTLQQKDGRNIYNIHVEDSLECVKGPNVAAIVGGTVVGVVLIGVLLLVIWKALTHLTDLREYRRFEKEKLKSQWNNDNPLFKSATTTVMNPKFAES
Procedure: K562 cells stably transfected with plasmid encoding wild-type integrin CD11b/CD18 (K562 WT cells) have been described previously and were maintained in Iscove's Modified Dulbecco's Medium (IMDM) supplemented with 10% FBS and G418 (0.5 mg/ml). The murine macrophage cell line (RAW 264.7 cells) was obtained from ATCC and the cells were maintained in DMEM supplemented with 10% heat-inactivated FBS according to the manufacturer's instructions. The primary rat peritoneal macrophages were isolated from the wild type Fisher 344 rats that had been previously injected with 5 mL of Brewer's thioglycolate broth (Sigma-Aldrich). Macrophage purity was directly analyzed by single channel flow cytometry using rat macrophage specific monoclonal antibodies ED1 (AbD Serotec, Raleigh, N.C.), WT.5 (BD Biosciences) and His36 (BD Biosciences). Purity was typically >85%. Macrophages were used in assays immediately upon isolation.
Cell adhesion assays using K562 WT, murine RAW 264.7 cells and the primary rat macrophages were performed as previously described and used immobilized fibrinogen as the ligand of CD11b/CD18 [49]. […] The remaining adherent cells were fixed using 4% formaldehyde and quantified by imaging microscopy as previously described (22, 63). […]

[5] = tested on: hematopoiesis and HSC compartment; assay: Hematopoiesis and HSC compartment after 6 Gy total body irradiation; format: in vivo, mice; details: 1 mg/kg i.p. 7 days from 24 hours post 6 Gy TBI; 4 weeks post TBI
Procedure: FIGS. 26A-26C show the analysis of hematopoiesis and HSC compartment in LA1 (Red bars), Vehicle control (Blue bars) treated groups of mice at 4 weeks after 6 Gy of total body irradiation (TBI), showing that LA1 is highly radio-protective and a radio-mitigator. […] Mice were exposed to 6 Gy of TBI (at 0.5 Gy/min), and treated intraperitoneally (i.p.) with LA1 (1 mg/kg) or vehicle alone for 7 consecutive days starting at 24 hours post TBI.

## O=C(O)c1ccc(-c2ccc(/C=C3\SC(=S)N(Cc4ccccc4)C3=O)o2)cc1 [LA1]
CD11b/CD18 [1]; absence of ligand fibrinogen, 45 minutes at 37° C.
  CD11b/CD18 macro clustering on cell surface: did not induce any significant CD11b/CD18 macro clustering
CD11b/CD18 [1]; presence of fibrinogen 50 μg/mL
  CD11b/CD18 macro clustering on cell surface: did so in the presence of fibrinogen
Syk
  Syk phosphorylation (pSyk): induction of Syk phosphorylation; also recorded: induces Syk phosphorylation
[2]; 10% Tween80, 20% ETPGS and 30% Captisol, 10 mg/mL slurry, Mg-salt
  solubility in vehicle formulation: 3000 to 4000 µg/mL
[2]; SGF and FaSSIF, 10% Tween80 formulation
  solubility on re-dispersion in simulated biological fluids: ~0.15 mg/mL
[3]
  engraftment of the donated kidney: much better engraftment
CD11b/CD18 [4]
  adhesion of RAW 264.7 cells to immobilized fibrinogen: significantly and similarly increased the level of cell adhesion
[5]
  HSC analysis (BM cellularity, frequency of LKS+ BM cells and LKS+ CD150+ CD48− BM cells): significant improvement
